The text below walks through data of ChEMBL document CHEMBL4616678, “Design, Synthesis, and Physicochemical and Pharmacological Profiling of 7-Hydroxy-5-oxopyrazolo[4,3-b]pyridine-6-carboxamide Derivatives with Antiosteoarthritic Activity In Vivo” (J Med Chem, 2020).

The term Ki denotes the dissociation constant of the complex between target and ligand, obtained from inhibition or displacement. In general, IC50 refers to the concentration that gives 50% inhibition. In general, pKa refers to the negative logarithm of the acid dissociation constant. A higher pKa goes with a group that holds its proton tightly. As a reminder, the logP is a log measure of how a compound divides between an organic and an aqueous phase. Read a low logP as a more hydrophilic compound. A word on the EC50: it is the concentration that produces a half-maximal response.

Data set [1] concerns the target Cannabinoid receptor 1 (Homo sapiens, UniProt P21554). The experiment in a line: Displacement of [3H]-CP-55,940 from recombinant human CB1R expressed in HEK293 cell membranes. Background: In a radioligand displacement assay an active substance lowers the binding of a labelled ligand.
Data set [2] concerns the target T1, Cannabinoid receptor 2 (Homo sapiens, UniProt P34972). Put plainly: Displacement of [3H]-CP-55,940 from recombinant human CB2R expressed in HEK293 cell membranes.
In data set [3] the test system is NIH3T3. The experiment in a line: Cytotoxicity against mouse NIH/3T3 assessed as reduction in cell viability after 1 to 14 days by Neutral red dye-based UV-visible spectrophotometer analysis. It is filed as functional.
Data set [4] in a line: Cytotoxicity against human NHAC-kn assessed as reduction in cell viability after 1 to 14 days by Neutral red dye-based UV-visible spectrophotometer analysis. It is filed as functional.
A short description of data set [5]: Kinetic solubility of the compound at pH 1.0 by HPLC-UV method. Format: physicochemical. The following applies: buffer, read-out: Kinetic_solubility.
Data set [6] is described as follows: Kinetic solubility of the compound at pH 7.4 by HPLC-UV method. It is filed as physicochemical. The following applies: buffer, read-out: Kinetic_solubility.
Data set [7] is described as follows: Ionization Constants, pKa of the compound by UV-vis spectra analysis. Format: physicochemical.
Data set [8] is described as follows: Lipophilicity, log P of the compound by UV-vis spectra analysis. Format: physicochemical. To be noted: octanol/water.
In data set [9] the target is T1, Cannabinoid receptor 2. The experiment in a line: Inverse agonist activity at recombinant human CB2R expressed in CHOK1 cells assessed as increase in NKH477-stimulated intracellular cAMP levels after 30 mins by chemiluminescent based cAMP Hunter assay. It is filed as functional, cell-based, CHO-K1. Background: cAMP levels reflect the balance of adenylyl cyclase and phosphodiesterase activity.

Data set [10] deals with T1, Cannabinoid receptor 2. Put plainly: Agonist activity at recombinant human CB2R expressed in CHOK1 cells assessed as inhibition of NKH477-stimulated intracellular cAMP levels after 30 mins by chemiluminescent detection based cAMP Hunter assay. Format: functional, cell-based, CHO-K1.
The species entered for data set [11] is Homo sapiens. Put plainly: Selectivity index, ratio of Ki for recombinant human CB1R expressed in HEK293 cell membranes to Ki for recombinant human CB2R expressed in HEK293 cell membranes. It is filed as cell-based.

≈ marks a conversion by molar mass, not a printed value.

Chain of Cannabinoid receptor 1 (P21554 whole entry): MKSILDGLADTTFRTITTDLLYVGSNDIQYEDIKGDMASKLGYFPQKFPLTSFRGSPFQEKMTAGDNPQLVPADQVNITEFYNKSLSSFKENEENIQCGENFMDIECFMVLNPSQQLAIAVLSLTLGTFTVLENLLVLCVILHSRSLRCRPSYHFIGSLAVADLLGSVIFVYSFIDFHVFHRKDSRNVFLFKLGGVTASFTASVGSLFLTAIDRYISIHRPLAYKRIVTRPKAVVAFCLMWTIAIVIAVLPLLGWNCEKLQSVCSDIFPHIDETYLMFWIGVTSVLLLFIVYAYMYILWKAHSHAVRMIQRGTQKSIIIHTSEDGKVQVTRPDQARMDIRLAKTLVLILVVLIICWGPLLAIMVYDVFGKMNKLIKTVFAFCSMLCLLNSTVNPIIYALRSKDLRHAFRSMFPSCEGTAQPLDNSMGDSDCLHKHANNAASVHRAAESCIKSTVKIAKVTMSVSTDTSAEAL
T1 sequence (P34972 whole entry): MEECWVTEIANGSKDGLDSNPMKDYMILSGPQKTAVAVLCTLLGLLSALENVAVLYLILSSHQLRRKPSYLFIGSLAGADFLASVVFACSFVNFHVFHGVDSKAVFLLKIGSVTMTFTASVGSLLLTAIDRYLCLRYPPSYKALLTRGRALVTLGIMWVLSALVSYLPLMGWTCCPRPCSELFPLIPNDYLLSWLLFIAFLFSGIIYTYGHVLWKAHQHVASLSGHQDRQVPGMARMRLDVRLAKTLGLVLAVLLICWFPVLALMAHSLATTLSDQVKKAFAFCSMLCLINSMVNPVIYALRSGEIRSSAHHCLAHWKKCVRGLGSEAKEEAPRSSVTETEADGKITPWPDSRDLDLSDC

For `CCCCn1c(=O)c(C(=O)NC23CC4CC(CC(O)(C4)C2)C3)c(O)c2nn(C)cc21`, the Ki is > 1000 nM in data set [1] and 10.6 nM in [2]. For the same compound, the IC50 came to 7500 nM in [3] and 2500 nM in data set [4]. Besides, the figures for the solubility kinetic in [5] and in data set [6] were 15 µg/mL (≈ 36.2 µM) and 20.9 µg/mL (≈ 50.4 µM), respectively. Besides, the pKa in data set [7] turned out to be 7.9. In data set [8], this compound gave a lipophilicity (logP) of 4.08.

For `CC(=O)OCCCCn1c(=O)c(C(=O)NC23CC4CC(CC(C4)C2)C3)c(O)c2nn(C)cc21`, the inhibition constant Ki in [1] is > 1000 nM; in [2], 17.3 nM. In [9], the concentration giving a half-maximal response (EC50) turned out to be 2080 nM. Further, the IC50 in data set [3] was 25000 nM; in data set [4] it was 7500 nM. In addition, the solubility kinetic in [6] was found to be 1.3 µg/mL (≈ 2.85 µM).

For `Cn1cc2c(n1)c(O)c(C(=O)NC13CC4CC(CC(O)(C4)C1)C3)c(=O)n2CCCCF`, the figures for the inhibitory constant (Ki) in [1] and in data set [2] were > 1000 nM and 6.2 nM, respectively. Moreover, the EC50 in [9] came to 590 nM. In addition, the IC50 in data set [3] amounted to 25000 nM; in [4] it was 12500 nM. The solubility kinetic in [5] is 39.9 µg/mL (≈ 92.3 µM); in data set [6], 37.6 µg/mL (≈ 86.9 µM). The compound also came in with a pKa in data set [7] of 7.97. This compound came in with a logP in data set [8] of 3.15.

For the compound `CN1N=CC2C1C(O)=C(C(=O)NC13CC4CC(CC(O)(C4)C1)C3)C(=O)N2CCCCF` (stereo unspecified), the Ki in data set [1] is 161 nM; in [2] it was 18.9 nM. In addition, the concentration for a half-maximal effect (EC50) in data set [10] is 71.8 nM. Moreover, the figures for the IC50 in data set [3] and in data set [4] were 25000 nM and 7500 nM, respectively. In addition, the solubility kinetic in data set [5] was determined as 9.1 µg/mL (≈ 20.9 µM); in [6], 15.1 µg/mL (≈ 34.8 µM).

Turning to `CCCCCn1c(=O)c(C(=O)NC23CC4CC(CC(C4)C2)C3)c(O)c2nn(CCO)cc21`, the Ki in data set [1] was found to be 108 nM; in data set [2], 4.8 nM. For the same compound, in data set [9], the EC50 turned out to be 880 nM. Also, the 50% inhibitory concentration (IC50) in data set [3] was 7500 nM; in data set [4] it was 2500 nM. Further, the solubility kinetic in data set [5] is 0.38 µg/mL (≈ 0.859 µM); in data set [6] it was 0.7 µg/mL (≈ 1.58 µM).

For `CCCCCN1C(=O)C(C(=O)NC23CC4CC(CC(C4)C2)C3)=C(O)C2C1C=NN2C` (stereo unspecified), the inhibition constant (Ki) in data set [1] is 56 nM; in data set [2], 0.9 nM. The Ratio Ki in data set [11] came out at 62. Besides, in data set [10], the 50% effective concentration (EC50) worked out at 252 nM. For the same compound, the solubility kinetic in data set [5] stood at 0.4 µg/mL (≈ 0.965 µM); in data set [6], 1.08 µg/mL (≈ 2.61 µM).

With `Cn1cc2c(n1)c(O)c(C(=O)NC13CC4CC(CC(C4)C1)C3)c(=O)n2CCCCF`, the Ki in data set [1] turned out to be 532 nM; in data set [2] it was 2.1 nM. The EC50 in [9] amounted to 270 nM. Moreover, the IC50 came out at 12500 nM in [3] and 7500 nM in data set [4]. The solubility kinetic in data set [5] was found to be 0.6 µg/mL (≈ 1.44 µM); in [6], 0.8 µg/mL (≈ 1.92 µM).

In the case of `CCCCCn1c(=O)c(C(=O)NC23CC4CC(CC(O)(C4)C2)C3)c(O)c2nn(CCO)cc21`, the Ki in data set [1] was 492 nM; in data set [2], 57.1 nM. Further, the results for the IC50 in data set [3] and in data set [4] were 7500 nM and 2500 nM, respectively. In addition, the figures for the solubility kinetic in data set [5] and in [6] were 9.7 µg/mL (≈ 21.2 µM) and 15 µg/mL (≈ 32.7 µM), respectively.

On to `CN1N=CC2C1C(O)=C(C(=O)NC13CC4CC(CC(C4)C1)C3)C(=O)N2CCCCF` (stereo unspecified), for which the Ki in data set [1] stood at 39.3 nM; in [2] it was 1.4 nM. Further, the EC50 in data set [10] turned out to be 21.9 nM. The IC50 in [3] and in [4] was 12500 nM throughout. The solubility kinetic in [5] stood at 0.7 µg/mL (≈ 1.67 µM); in data set [6], 1.5 µg/mL (≈ 3.58 µM).

Regarding `CCCCN1C(=O)C(C(=O)NC23CC4CC(CC(O)(C4)C2)C3)=C(O)C2C1C=NN2C` (stereo unspecified), the inhibition constant (Ki) in [1] was determined as 86.9 nM; in data set [2], 19.3 nM. Further, the figures for the half-maximal inhibitory concentration (IC50) in data set [3] and in data set [4] were 25000 nM and 7500 nM, respectively. The solubility kinetic was determined as 2.1 µg/mL (≈ 5.04 µM) in [5] and 4.6 µg/mL (≈ 11 µM) in [6]. In addition, the pKa in data set [7] worked out at 7.56. This compound also showed a logP in data set [8] of 4.85.

As for `COc1ccc(C(=O)c2c(C)n(CCN3CCOCC3)c3cc(I)ccc23)cc1`, the EC50 in data set [9] turned out to be 3150 nM.

`CCCn1c(=O)c(C(=O)NC23CC4CC(CC(C4)C2)C3)c(O)c2nn(CCOC(C)=O)cc21`: the Ki in data set [1] was > 1000 nM; in [2] it was 186 nM. Moreover, the Ratio Ki in data set [11] was found to be 5. Moreover, the solubility kinetic in data set [6] was determined as 1.1 µg/mL (≈ 2.41 µM).

With `CCCCn1c(=O)c(C(=O)NC23CC4CC(CC(C4)C2)C3)c(O)c2nn(C)cc21`, the inhibition constant Ki turned out to be 231 nM in data set [1] and 2.5 nM in [2]. The 50% effective concentration (EC50) in data set [9] worked out at 370 nM. Moreover, the IC50 in [3] is 12500 nM; in data set [4] it was 7500 nM. For the same compound, the solubility kinetic in data set [5] is 0.23 µg/mL (≈ 0.577 µM); in data set [6], 1.9 µg/mL (≈ 4.77 µM). In data set [7], this compound gave a pKa of 8.6. Further, the logP in [8] is 5.3.

`CCCCCn1cc(C(=O)NC23CC4CC(CC(C4)C2)C3)c(=O)c2cc(C(C)C)ccc21`: in [6], the solubility kinetic was found to be 1 µg/mL (≈ 2.3 µM).

For `Cn1cc2c(n1)c(O)c(C(=O)NC13CC4CC(CC(C4)C1)C3)c(=O)n2CCCCO`, the inhibition constant Ki is > 1000 nM in data set [1] and 14.3 nM in data set [2]. Further, the EC50 in [9] worked out at 1450 nM. The concentration for half-maximal inhibition (IC50) turned out to be 25000 nM in data set [3] and 12500 nM in data set [4]. Moreover, the solubility kinetic came to 2.53 µg/mL (≈ 6.1 µM) in data set [5] and 3.2 µg/mL (≈ 7.72 µM) in data set [6].

As for `CCCCCn1c(=O)c(C(=O)NC23CC4CC(CC(C4)C2)C3)c(O)c2nn(C)cc21`, the Ki worked out at 33.5 nM in data set [1] and 0.18 nM in data set [2]. Also, the Ratio Ki in data set [11] amounted to 167. In data set [9], the half-maximal effective concentration (EC50) turned out to be 1180 nM. The solubility kinetic in data set [5] came to 2.9 µg/mL (≈ 7.03 µM); in data set [6] it was 1.9 µg/mL (≈ 4.61 µM).

As to `CCCC(C)(C)c1ccc2c(c1)OC(C)(C)[C@@H]1CC=C(C)C[C@@H]21`, in data set [10], the concentration giving a half-maximal response (EC50) stood at 391 nM.

As for `CCCCn1c(=O)c(C(=O)NC23CC4CC(CC(C4)C2)C3)c(O)c2nn(CCO)cc21`, the Ki in data set [1] is > 1000 nM; in data set [2], 18.4 nM. Moreover, the IC50 was found to be 12500 nM in data set [3] and 2500 nM in [4]. For the same compound, the solubility kinetic in [5] came to 1.6 µg/mL (≈ 3.73 µM); in [6] it was 2.1 µg/mL (≈ 4.9 µM).

As for `CCCn1c(=O)c(C(=O)NC23CC4CC(CC(C4)C2)C3)c(O)c2nn(CCO)cc21`, the results for the inhibitory constant (Ki) in [1] and in [2] were > 1000 nM and 159 nM, respectively. The Ratio Ki in [11] amounted to 6. The solubility kinetic in [5] turned out to be 3.4 µg/mL (≈ 8.2 µM); in [6], 3.9 µg/mL (≈ 9.41 µM).
